# Measured values from ChEMBL document CHEMBL5465560, “Selectivity Literature for EUbOPEN Chemogenomic Library” (2024).
# Tests used:
# [1] = target: T1, Serine/threonine-protein kinase tousled-like 1 (Homo sapiens) (UniProt Q9UKI8); test: Selectivity interaction (ActivX KiNativ screen (kinase selectivity in THP-1 cell lysates)) EUB0000639a TLK1; type: subcellular; details: lysate, at 1 µM
# T1 sequence (whole entry): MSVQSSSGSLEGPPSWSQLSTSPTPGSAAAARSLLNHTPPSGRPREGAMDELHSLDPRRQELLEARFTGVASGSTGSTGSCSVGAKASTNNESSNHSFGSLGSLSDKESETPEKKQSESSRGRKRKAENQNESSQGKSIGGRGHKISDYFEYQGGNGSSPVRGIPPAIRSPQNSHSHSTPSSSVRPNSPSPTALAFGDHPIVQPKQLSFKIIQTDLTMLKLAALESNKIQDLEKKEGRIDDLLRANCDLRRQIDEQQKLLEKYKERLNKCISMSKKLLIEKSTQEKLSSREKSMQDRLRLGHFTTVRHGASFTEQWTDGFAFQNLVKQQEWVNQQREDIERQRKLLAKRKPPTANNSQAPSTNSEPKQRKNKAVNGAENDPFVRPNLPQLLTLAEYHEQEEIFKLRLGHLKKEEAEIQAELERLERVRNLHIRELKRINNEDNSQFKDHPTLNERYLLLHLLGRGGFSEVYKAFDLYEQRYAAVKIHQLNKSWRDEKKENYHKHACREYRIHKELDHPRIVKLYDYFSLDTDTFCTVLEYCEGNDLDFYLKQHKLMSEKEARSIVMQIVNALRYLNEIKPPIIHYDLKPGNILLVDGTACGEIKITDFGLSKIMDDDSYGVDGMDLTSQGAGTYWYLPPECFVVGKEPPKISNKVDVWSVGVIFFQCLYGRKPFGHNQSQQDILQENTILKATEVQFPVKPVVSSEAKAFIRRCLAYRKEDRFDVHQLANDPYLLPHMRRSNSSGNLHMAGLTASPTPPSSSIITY
# [2] = target: T2, Mitogen-activated protein kinase kinase kinase 6 (Homo sapiens) (UniProt O95382); test: Selectivity interaction (ActivX KiNativ screen (kinase selectivity in THP-1 cell lysates)) EUB0000639a MAP3K6; type: subcellular; details: lysate, at 1 µM
# T2 sequence (whole entry): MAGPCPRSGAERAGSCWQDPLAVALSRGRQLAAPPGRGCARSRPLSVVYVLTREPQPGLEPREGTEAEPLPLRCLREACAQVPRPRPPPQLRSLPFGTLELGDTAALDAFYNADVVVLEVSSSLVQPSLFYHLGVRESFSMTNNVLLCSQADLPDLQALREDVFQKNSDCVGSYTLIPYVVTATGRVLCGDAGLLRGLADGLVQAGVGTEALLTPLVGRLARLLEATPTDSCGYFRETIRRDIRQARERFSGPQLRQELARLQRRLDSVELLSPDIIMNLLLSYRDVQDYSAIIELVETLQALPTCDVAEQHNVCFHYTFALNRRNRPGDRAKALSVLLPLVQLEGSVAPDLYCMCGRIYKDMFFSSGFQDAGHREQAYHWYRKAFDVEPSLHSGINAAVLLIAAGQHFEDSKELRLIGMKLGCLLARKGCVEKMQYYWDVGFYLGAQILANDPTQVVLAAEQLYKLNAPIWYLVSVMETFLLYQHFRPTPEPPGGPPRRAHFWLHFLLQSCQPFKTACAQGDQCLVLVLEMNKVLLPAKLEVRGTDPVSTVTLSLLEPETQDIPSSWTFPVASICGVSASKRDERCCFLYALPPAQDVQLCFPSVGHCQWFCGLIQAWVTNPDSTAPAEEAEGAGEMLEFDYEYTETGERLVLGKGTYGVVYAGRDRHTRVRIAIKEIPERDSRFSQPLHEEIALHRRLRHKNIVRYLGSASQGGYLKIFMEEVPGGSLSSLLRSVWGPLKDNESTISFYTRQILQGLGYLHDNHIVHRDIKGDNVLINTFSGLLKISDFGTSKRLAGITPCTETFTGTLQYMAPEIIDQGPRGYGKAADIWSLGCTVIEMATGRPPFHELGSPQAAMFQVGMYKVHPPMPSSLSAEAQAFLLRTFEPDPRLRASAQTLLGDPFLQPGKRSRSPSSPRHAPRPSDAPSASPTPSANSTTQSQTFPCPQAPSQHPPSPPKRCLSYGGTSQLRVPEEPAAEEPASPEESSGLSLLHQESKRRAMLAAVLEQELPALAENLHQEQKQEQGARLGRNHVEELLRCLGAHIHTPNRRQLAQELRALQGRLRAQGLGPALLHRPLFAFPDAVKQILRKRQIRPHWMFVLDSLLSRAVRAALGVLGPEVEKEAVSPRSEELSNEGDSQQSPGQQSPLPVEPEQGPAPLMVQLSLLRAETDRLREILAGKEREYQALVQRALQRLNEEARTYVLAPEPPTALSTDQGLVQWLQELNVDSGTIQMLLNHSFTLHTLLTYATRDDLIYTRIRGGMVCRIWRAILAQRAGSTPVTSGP
# [3] = target: T2, Mitogen-activated protein kinase kinase kinase 6 (Homo sapiens); test: Selectivity interaction (KinomeScan (DiscoverX)) EUB0000655a MAP3K6; details: at 10 µM
# [4] = target: Tyrosine-protein kinase CSK (Homo sapiens) (UniProt P41240); test: Selectivity interaction (ProQinase) EUB0000171b CSK
# Chain of Tyrosine-protein kinase CSK (Homo sapiens) (P41240 2-450 limits assumed): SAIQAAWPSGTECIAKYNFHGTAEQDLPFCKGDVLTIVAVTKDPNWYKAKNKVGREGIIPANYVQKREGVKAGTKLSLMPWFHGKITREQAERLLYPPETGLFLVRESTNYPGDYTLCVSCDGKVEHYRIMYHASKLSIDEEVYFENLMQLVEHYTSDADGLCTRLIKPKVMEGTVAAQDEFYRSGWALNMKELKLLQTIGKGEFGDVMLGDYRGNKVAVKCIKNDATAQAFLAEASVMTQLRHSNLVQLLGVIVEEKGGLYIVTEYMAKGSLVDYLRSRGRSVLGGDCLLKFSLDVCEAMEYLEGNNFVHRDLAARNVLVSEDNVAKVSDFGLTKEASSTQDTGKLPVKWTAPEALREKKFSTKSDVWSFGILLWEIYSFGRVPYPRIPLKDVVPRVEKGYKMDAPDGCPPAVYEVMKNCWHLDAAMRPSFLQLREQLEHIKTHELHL
smiles,measurement,setting,value
CC[C@@H]1[C@H](F)C(=O)N[C@@H]1COc1nccc2cc(C(N)=O)c(OC)cc12 [ZIMLOVISERTIB],% of inhibition,[1],34.3%
same,% of inhibition,[2],-16.4%
CN(C)CCOc1ccc(-c2nc(-c3ccncc3)c(-c3ccc4c(c3)CC/C4=N\O)[nH]2)cc1,% of control,[3],100%
C=CC(=O)Nc1cccc(C(=O)Nc2ccc(Nc3cc(-c4[nH]c(SC)nc4C)ccn3)cc2)c1,% of control,[4]; at 1 µM,87%
same,% of control,[4]; at 5 µM,81%
